Test results taken from US20230096028A1, “BICYCLIC HETEROCYCLYL COMPOUNDS AND USES THEREOF” (Revolution Medicines, Inc., priority 2019, published 2023).
Like-named read-outs stand apart in the source and are kept apart here.

What was measured:
[1] = target: T1, SOS1 catalytic domain (residues 564-1049) (Homo sapiens, UniProt Q07889); test: Mode of Action Assay: inhibition of SOS1 nucleotide exchange activity (SOS1 TR-FRET IC50 Assay)
T1 sequence (Q07889 564-1049): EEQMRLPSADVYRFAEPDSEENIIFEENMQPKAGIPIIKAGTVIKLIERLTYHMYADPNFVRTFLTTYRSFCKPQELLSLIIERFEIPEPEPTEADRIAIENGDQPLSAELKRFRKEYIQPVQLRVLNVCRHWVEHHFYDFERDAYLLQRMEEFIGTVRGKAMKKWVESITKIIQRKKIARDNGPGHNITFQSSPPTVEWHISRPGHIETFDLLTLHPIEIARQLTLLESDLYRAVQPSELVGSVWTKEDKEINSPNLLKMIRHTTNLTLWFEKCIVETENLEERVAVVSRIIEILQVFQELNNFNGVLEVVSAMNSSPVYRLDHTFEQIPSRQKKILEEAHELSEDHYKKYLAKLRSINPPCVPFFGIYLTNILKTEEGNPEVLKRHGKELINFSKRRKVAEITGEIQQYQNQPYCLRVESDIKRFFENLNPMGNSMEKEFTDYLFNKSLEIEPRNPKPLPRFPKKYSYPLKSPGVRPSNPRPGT

[2] = target: T1, SOS1 catalytic domain (residues 564-1049); test: Potency Assay: binding affinity to SOS1 using Surface Plasmon Resonance (SPR); set-up: SOS1 catalytic domain (residues 564-1049) immobilized on a sensor chip; conditions: immobilized SOS1 catalytic domain (residues 564-1049), read-out: SOS1 SPR Equilibrium Kd
Outline: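 Kd was obtained by plotting binding response, taken just before association ended, versus compound concentration on a Biacore 8K. Compounds flowed at 50 μL/min over streptavidin-captured avi-SOS1 catalytic domain (~6000 RU), followed by buffer dissociation; HEPES 0.01 M/NaCl 0.15 M/0.05% P20 buffer, double-referenced.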

[3] = tested on: PC-9 cells (EGFR Ex19Del); test: Potency Assay: pERK (SOS1 pERK IC50 Assay, AlphaLISA SureFire Ultra p-ERK1/2); type: cell-based; conditions: Homo sapiens, read-out: SOS1 pERK IC50
Outline: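 Cellular pERK1/2 by AlphaLISA SureFire Ultra after 1 h compound exposure (37° C., highest concentration 10 μM, 3-fold steps, duplicates) of EGFR Ex19Del PC-9 cells seeded the day before. A 4-parameter fit of signal versus log concentration gives IC50.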

[4] = PC-9 cells (EGFR Ex19Del), 1 hour incubation, AlphaLISA p-ERK1/2

Compound | IC50 [1] | Kd [2] | IC50 [3, 4] | IC50 ([3]; PC-9, 1 h)
C[C@@H](Nc1nc(Cl)nc2c1CN(C(=O)c1ccc(-n3ccnc3)cn1)CC2)c1cc(N)cc(C(F)(F)F)c1 [Example 250] | > 1 µM | > 0.4 µM | > 1 µM | 
CNCc1ccccc1-c1cnc(C(C)Nc2nc(Cl)nc3c2CN(C(=O)N2CCOCC2)C3)s1 (stereo not drawn) [Example 31] | > 1 µM | < 0.4 µM | > 1 µM | 
C[C@@H](Nc1nc(Cl)nc2c1CN(C(=O)C1(F)CN(C3COC3)C1)C2)c1cccc(C(F)F)c1F [Example 329] | < 1 µM | < 0.4 µM | < 1 µM | 
C[C@@H](Nc1nc(Cl)nc2c1CN(C(=O)N1CCOCC1)C2)c1cccc(C(F)(F)COC2CC2)c1F [Example 469, [2-chloro-4-[[(1R)-1-[3-[2-(cyclopropoxy)-1,1-difluoro-ethyl]-2-fluoro-phenyl]ethyl]amino]-5,7-dihydropyrrolo[3,4-d]pyrimidin-6-yl]-morpholino-methanone] | < 1 µM | < 0.4 µM |  | < 1 µM
COC1CCN(S(=O)(=O)N2CCc3nc(Cl)nc(N[C@H](C)c4cc(N)cc(C(F)(F)F)c4)c3C2)CC1 [Example 179] | < 1 µM | < 0.4 µM | < 1 µM | 
COC1(C(=O)N2Cc3nc(Cl)nc(N[C@H](C)c4cccc(C(F)(F)F)c4)c3C2)CNC1 [Example 316] | < 1 µM | < 0.4 µM | < 1 µM | 
C[C@@H]1OCC2(CCN(C(=O)N3Cc4nc(Cl)nc(N[C@H](C)c5cccc(C(F)F)c5F)c4C3)CC2)[C@@H]1N [Example 424] | < 1 µM | < 0.4 µM | > 1 µM | 
C[C@@H](Nc1nc(Cl)nc2c1CN(C(=O)C1(C)CCNCC1)C2)c1cccc(C(F)(F)F)c1 [Example 314] | < 1 µM | < 0.4 µM | > 1 µM | 
Cc1nc2c(c(N[C@H](C)c3cc(N)cc(C(F)(F)F)c3)n1)CC(C(=O)N1CCOCC1)C2 (stereo partly drawn) [Example 45, [4-[[(1R)-1-[3-amino-5-(trifluoromethyl)phenyl]ethyl]amino]-2-methyl-6,7-dihydro-5H-cyclopenta[d]pyrimidin-6-yl]-morpholino-methanone] | < 1 µM | > 0.4 µM | < 1 µM | 
COc1ccc(CC(=O)N2Cc3nc(Cl)nc(N[C@H](C)c4cc(N)cc(C(F)(F)F)c4)c3C2)cc1OC [Example 102] | > 1 µM | > 0.4 µM | < 1 µM | 
C[C@@H](Nc1nc(Cl)nc2c1CN(C(=O)CN1CCN(C)CC1)C2)c1cccc(C(F)F)c1F [Example 283] | < 1 µM | < 0.4 µM | < 1 µM | 
C[C@@H](Nc1nc(Cl)nc2c1CN(C(=O)N1CCOCC1)C2)c1cccc(C(C)(F)F)c1F [Example 478, 2-chloro-N-[(1R)-1-[3-(1,1-difluoroethyl)-2-fluorophenyl]ethyl]-6-(morpholine-4-carbonyl)-5H,6H,7H-pyrrolo[3,4-d]pyrimidin-4-amine] | < 1 µM | < 0.4 µM | < 1 µM | 
C[C@@H](Nc1nc(Cl)nc2c1CN(C(=O)C1(F)CCN(C)CC1)C2)c1cccc(C(F)F)c1F [Example 326] | < 1 µM | < 0.4 µM | < 1 µM | 
C[C@@H](Nc1nc(Cl)nc2c1CN(S(=O)(=O)c1c[nH]cn1)CC2)c1cc(N)cc(C(F)(F)F)c1 [Example 458] | < 1 µM | < 0.4 µM | < 1 µM | 
C[C@@H](Nc1nc(Cl)nc2c1CN(C(=O)C1CCN3CCOCC13)C2)c1cccc(C(F)F)c1F (stereo partly drawn) [Example 318] | < 1 µM | < 0.4 µM | > 1 µM | 
C[C@@H](Nc1nc(Cl)nc2c1CN(C(=O)C1(F)CCOCC1)C2)c1cc(N)cc(C(F)(F)F)c1 [Example 256] | < 1 µM | < 0.4 µM | < 1 µM | 
C[C@@H](Nc1nc(Cl)nc2c1CN(C1CCOCC1)C2=O)c1cc(N)cc(C(F)(F)F)c1 [Example 30, 4-[[(1R)-1-[3-amino-5-(trifluoromethyl)phenyl]ethyl]amino]-2-chloro-6-tetrahydropyran-4-yl-5H-pyrrolo[3,4-d]pyrimidin-7-one] | < 1 µM | < 0.4 µM | > 1 µM | 
Cc1nc2c(c(N[C@H](C)c3cc(N)cc(C(F)(F)F)c3)n1)CN(S(C)(=O)=O)C2 [Example 46, (R)—N-(1-(3-amino-5-(trifluoromethyl)phenyl)ethyl)-2-methyl-6-(methylsulfonyl)-6,7-dihydro-5H-pyrrolo[3,4-d]pyrimidin-4-amine] | > 1 µM | > 0.4 µM | > 1 µM | 
C[C@@H](Nc1nc(Cl)nc2c1CN(C(=O)[C@@H]1CNCCO1)C2)c1cccc(C(F)(F)F)c1 [Example 278] | < 1 µM | < 0.4 µM | < 1 µM | 

The next lines start with results.

IC50 [1] | Kd [2] | IC50 [3, 4] | Compound | IC50 ([3]; PC-9, 1 h)
< 1 µM | < 0.4 µM | < 1 µM | COC1(C(=O)N2Cc3nc(Cl)nc(N[C@H](C)c4cccc(C(F)(F)CN)c4)c3C2)CCOCC1 [Example 525, N-[(1R)-1-[3-(2-amino-1,1-difluoroethyl)phenyl]ethyl]-2-chloro-6-(4-methoxyoxane-4-carbonyl)-5H,6H,7H-pyrrolo[3,4-d]pyrimidin-4-amine] | 
< 1 µM | < 0.4 µM | < 1 µM | C[C@@H](Nc1nc(Cl)nc2c1CN(C(=O)C1COCCN(C)C1)C2)c1cccc(C(F)F)c1F (stereo partly drawn) [Example 320] | 
< 1 µM | < 0.4 µM | < 1 µM | C[C@@H](Nc1nc(Cl)nc2c1CN(C(=O)N1CCOC(F)(F)C1)C2)c1cccc(C(F)F)c1F [Example 411] | 
< 1 µM | < 0.4 µM | < 1 µM | C[C@@H](Nc1nc(Cl)nc2c1CN(S(=O)(=O)N1CCOCC1)C2)c1cc(N)cc(C(F)(F)F)c1 [Example 24, N-[(1R)-1-[3-amino-5-(trifluoromethyl)phenyl]ethyl]-2-chloro-6-morpholinosulfonyl-5,7-dihydropyrrolo[3,4-d]pyrimidin-4-amine] | 
< 1 µM | < 0.4 µM | > 1 µM | C[C@@H](Nc1nc(Cl)nc2c1CN(C(=O)CC1CCN(C)C1)C2)c1cc(N)cc(C(F)(F)F)c1 (stereo partly drawn) [Example 257] | 
< 1 µM | < 0.4 µM | > 1 µM | C[C@@H](Nc1nc(Cl)nc2c1CN(C(=O)N1CCOCC1)C2)c1cccc(C(F)(F)C2COCCN2)c1 (stereo partly drawn) [Example 538, (2-chloro-4-(((1R)-1-(3-(difluoro(morpholin-3-yl)methyl)phenyl)ethyl)amino)-5,7-dihydro-6H-pyrrolo[3,4-d]pyrimidin-6-yl)(morpholino)methanone] | 
< 1 µM | > 0.4 µM | < 1 µM | COc1nccc(C(=O)N2Cc3nc(Cl)nc(N[C@H](C)c4cc(N)cc(C(F)(F)F)c4)c3C2)n1 [Example 72] | 
< 1 µM | > 0.4 µM | > 1 µM | C[C@@H](Nc1nc(Cl)nc2c1CN(C(=O)C1COCCN1)C2)c1cccc(C(F)(F)F)c1 (stereo partly drawn) [Example 276] | 
< 1 µM | < 0.4 µM | < 1 µM | COc1nccnc1C(=O)N1Cc2nc(Cl)nc(N[C@H](C)c3cc(N)cc(C(F)(F)F)c3)c2C1 [Example 75] | 
< 1 µM | < 0.4 µM | < 1 µM | C[C@@H](Nc1nc(Cl)nc2c1CN(C(=O)N1CCNC(=O)C1)C2)c1cccc(C(F)(F)F)c1 [Example 376] | 
< 1 µM | < 0.4 µM | < 1 µM | C[C@@H](Nc1nc(Cl)nc2c1CN(C(=O)N1CCOCC1)C2)c1cccc2c(F)coc12 [Example 468, [2-chloro-4-[[(1R)-1-(3-fluorobenzofuran-7-yl)ethyl]amino]-5,7-dihydropyrrolo[3,4-d]pyrimidin-6-yl]-morpholino-methanone] | 
< 1 µM | < 0.4 µM | > 1 µM | C[C@@H](Nc1nc(C2CNC2)nc2c1CN(C(=O)N1CCOCC1)C2)c1cccc(C(F)F)c1F [Example 446, [2-(azetidin-3-yl)-4-[[(1R)-1-[3-(difluoromethyl)-2-fluoro-phenyl]ethyl]amino]-5,7-dihydropyrrolo[3,4-d]pyrimidin-6-yl]-morpholino-methanone] | 
< 1 µM | < 0.4 µM | < 1 µM | C[C@@H](Nc1nc(Cl)nc2c1CN(C(=O)N1CCN(C3COC3)CC1)C2)c1cccc(C(F)(F)CO)c1 [Example 357] | 
< 1 µM | < 0.4 µM | < 1 µM | COC1(C(=O)N2Cc3nc(Cl)nc(N[C@H](C)c4cccc(C(F)F)c4F)c3C2)CN(C)C1 [Example 324] | 
< 1 µM | < 0.4 µM | < 1 µM | C[C@@H](Nc1nc(Cl)nc2c1CN(C(=O)N1C[C@H]3COC[C@H]3C1)C2)c1cccc(C(F)F)c1F [Example 410] | 
